Reference: patent publication US11000033B2, “Ketone or oxime compound, and herbicide” (NISSAN CHEMICAL CORPORATION, priority 2014, dated 2021)

Assays:
Format in all cases: in vivo
[1] = test system: Echinochloa oryzacola Vasing.; experiment: Test Example 2: herbicidal activity, application during weed generation in submerged conditions (symbol A); settings: Table 23; application herbicide amount 320 g/ha; grade 0-5 by criteria of Test Example 1
In short: (§1)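 Read-out: herbicidal effect on each species rated on a visual scale 3 weeks after treatment. Plants were raised together from seed in flooded alluvial soil (4 cm water) at 25° C. to 30° C. and treated at one to two leaves by water-surface application of diluted emulsion.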

Scirpus juncoides = experiment: Test Example 2: herbicidal activity, application during weed generation in submerged conditions (symbol B); settings: Table 23; application herbicide amount 320 g/ha; grade 0-5 by criteria of Test Example 1
In short: as §1

[2] = test system: directly sowed rice plant; experiment: Test Example 3: effect on crop by foliage application, Wagner pot (symbol b); settings: application herbicide amount 320 g/ha
In short: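 Alluvial soil in a 1/10000-are Wagner pot was flooded to a water depth of 0.1–0.5 cm. Echinochloa crus-galli var. crus-galli, Leptochloa chinensis, Cyperus difformis and rice were sown into it and grown in a greenhouse at 25–30 °C.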

Avena fatua = experiment: Test Example 4: herbicidal effect by soil treatment (symbol I); settings: application herbicide amount 320 g/ha
In short: (§2)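 Seeds were sown in sterilized diluvial soil, covered with about 1.5 cm of soil, and the soil surface was sprayed with a water-diluted emulsion of the compound at a predetermined rate. Plants grew in a greenhouse at 25° C. to 30° C.; effects were scored visually 3 weeks after application.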

Lolium multiflorum Lam. = experiment: Test Example 4: herbicidal effect by soil treatment (symbol K); settings: application herbicide amount 320 g/ha
In short: as §2

Apera spica-venti = experiment: Test Example 4: herbicidal effect by soil treatment (symbol L); settings: application herbicide amount 320 g/ha
In short: as §2

Amaranthus retroflexus = experiment: Test Example 4: herbicidal effect by soil treatment (symbol N); settings: application herbicide amount 320 g/ha
In short: as §2

soybean = experiment: Test Example 4: effect on crop by soil treatment (symbol d); settings: application herbicide amount 320 g/ha
In short: (§3)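 Plants are raised in a greenhouse (25° C. to 30° C.) from spot-sown seed, which sits under about 1.5 cm of sterilized diluvial soil in a box shared with weed species.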

rice = experiment: Test Example 4: effect on crop by soil treatment (symbol b); settings: application herbicide amount 320 g/ha
In short: as §3

wheat [3] = experiment: Test Example 4: effect on crop by soil treatment (symbol e); settings: application herbicide amount 320 g/ha
In short: as §3

rapeseed [4] = experiment: Test Example 4: effect on crop by soil treatment (symbol g); settings: application herbicide amount 320 g/ha
In short: as §3

Abutilon theophrasti = experiment: Test Example 5: herbicidal effect by foliage application, plastic box (symbol M); settings: 320 g/ha, 3 weeks after application
In short: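 Greenhouse foliar test: seedlings at 14 days, grown 25° C. to 30° C. in sterilized diluvial soil; compound applied as an aqueous dilution of an emulsion; response read 3 weeks after spraying.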

rice plant = experiment: Test Example 5: effect on crop by foliage application, plastic box (symbol b); settings: 320 g/ha, 3 weeks after application
In short: (§4)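 Greenhouse culture at 25° C. to 30° C. followed spot-like sowing into sterilized diluvial soil, with seed covered by roughly 1.5 cm of soil.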

wheat [5] = experiment: Test Example 5: effect on crop by foliage application, plastic box (symbol e); settings: 320 g/ha, 3 weeks after application
In short: as §4

beet = experiment: Test Example 5: effect on crop by foliage application, plastic box (symbol f); settings: 320 g/ha, 3 weeks after application
In short: as §4

rapeseed [6] = experiment: Test Example 5: effect on crop by foliage application, plastic box (symbol g); settings: 320 g/ha, 3 weeks after application
In short: as §4

For `CCc1cc(-c2ccc(Cl)cc2)cc(C)c1C1=C(O)CC(CC(C)=NOC)C1=O` (centres unmarked) [6-066], the “Herbicidal effect grade, A: Echinochloa oryzacola Vasing.” value [1] was 5 (Herbicidal ratio of 90% or more (almost completely withered)), the “Herbicidal effect grade, B: Scirpus juncoides” value (shortened to “Herbicidal effect grade, B”) (Scirpus juncoides) was 0 (Herbicidal ratio of 5% or lower (almost no effect)) and the “effect on crop b (directly sowed rice plant), grade 0-5” value (from here on “effect on crop b”) [2] was 5 (Herbicidal ratio of 90% or more (almost completely withered)). The “I: Avena fatua, herbicidal effect grade” value (Avena fatua) was 5 (Herbicidal ratio of 90% or more (almost completely withered)), the “K: Lolium multiflorum Lam., herbicidal effect grade” value (Lolium multiflorum Lam.) was 5 (Herbicidal ratio of 90% or more (almost completely withered)) and the “L: Apera spica-venti, herbicidal effect grade” value (Apera spica-venti) was 5 (Herbicidal ratio of 90% or more (almost completely withered)). The “N: Amaranthus retroflexus, herbicidal effect grade” value (Amaranthus retroflexus) was 2 (Herbicidal ratio of 20% or higher and lower than 40%), the “d: soybean, effect on crop grade” value (soybean) was 0 (Herbicidal ratio of 5% or lower (almost no effect)) and the “b: directly sowed rice plant, effect on crop grade” value (rice) was 5 (Herbicidal ratio of 90% or more (almost completely withered)). For the same compound, the “e: wheat, effect on crop grade” value (wheat [3]) was 4 (Herbicidal ratio of 70% or higher and lower than 90%), the “g: rapeseed, effect on crop grade” value (rapeseed [4]) was 2 (Herbicidal ratio of 20% or higher and lower than 40%) and the “M: Abutilon theophrasti, herbicidal effect (criteria of Test Example 1)” value (shortened to “M: Abutilon theophrasti”) (Abutilon theophrasti) was 3 (Herbicidal ratio of 40% or higher and lower than 70%). For the same compound, the “b: directly sowed rice plant, effect on crop (criteria of Test Example 1)” value (rice plant) was 5 (Herbicidal ratio of 90% or more (almost completely withered)), the “e: wheat, effect on crop (criteria of Test Example 1)” value (wheat [5]) was 5 (Herbicidal ratio of 90% or more (almost completely withered)) and the “f: beet, effect on crop (criteria of Test Example 1)” value (“f: beet, effect on crop” below) (beet) was 0 (Herbicidal ratio of 5% or lower (almost no effect)).
With `CON=C(C)CC1CC(OC(=O)N2CCOCC2)=C(c2c(C)cc(-c3ccc(Cl)cc3)cc2OC)C1=O` (centres unmarked) [6-078, 2-(4′-chloro-3-methoxy-5-methyl-[1,1′-biphenyl]-4-yl)-4-{2-(methoxyimino)propyl}-3-oxocyclopent-1-ene-1-yl morpholine-4-carboxylate] the “Herbicidal effect grade, A: Echinochloa oryzacola Vasing.” value [1] was 4 (Herbicidal ratio of 70% or higher and lower than 90%), the “Herbicidal effect grade, B” value (Scirpus juncoides) was 2 (Herbicidal ratio of 20% or higher and lower than 40%) and the “effect on crop b” value [2] was 5 (Herbicidal ratio of 90% or more (almost completely withered)). The “I: Avena fatua, herbicidal effect grade” value (Avena fatua) was 3 (Herbicidal ratio of 40% or higher and lower than 70%), the “K: Lolium multiflorum Lam., herbicidal effect grade” value (Lolium multiflorum Lam.) was 0 (Herbicidal ratio of 5% or lower (almost no effect)) and the “L: Apera spica-venti, herbicidal effect grade” value (Apera spica-venti) was 3 (Herbicidal ratio of 40% or higher and lower than 70%). The “N: Amaranthus retroflexus, herbicidal effect grade” value (Amaranthus retroflexus) was 0 (Herbicidal ratio of 5% or lower (almost no effect)), the “d: soybean, effect on crop grade” value (soybean) was 1 (Herbicidal ratio of 5% or higher and lower than 20%) and the “b: directly sowed rice plant, effect on crop grade” value (rice) was 1 (Herbicidal ratio of 5% or higher and lower than 20%). For the same compound, the “e: wheat, effect on crop grade” value (wheat [3]) was 0 (Herbicidal ratio of 5% or lower (almost no effect)), the “g: rapeseed, effect on crop grade” value (rapeseed [4]) was 0 (Herbicidal ratio of 5% or lower (almost no effect)) and the “M: Abutilon theophrasti” value (Abutilon theophrasti) was 4 (Herbicidal ratio of 70% or higher and lower than 90%). The “e: wheat, effect on crop (criteria of Test Example 1)” value (wheat [5]) was 5 (Herbicidal ratio of 90% or more (almost completely withered)), the “f: beet, effect on crop” value (beet) was 0 (Herbicidal ratio of 5% or lower (almost no effect)) and the “g: rapeseed, effect on crop (criteria of Test Example 1)” value (rapeseed [6]) was 4 (Herbicidal ratio of 70% or higher and lower than 90%).
In the case of `CON=C(C)CC1CC(OC(=O)SC(C)(C)C)=C(c2c(C)cc(-c3ccc(Cl)cc3)cc2C)C1=O` (centres unmarked) [6-082], the “Herbicidal effect grade, A: Echinochloa oryzacola Vasing.” value [1] is reported as 4 (Herbicidal ratio of 70% or higher and lower than 90%), the “Herbicidal effect grade, B” value (Scirpus juncoides) is reported as 3 (Herbicidal ratio of 40% or higher and lower than 70%) and the “effect on crop b” value [2] is reported as 5 (Herbicidal ratio of 90% or more (almost completely withered)). For the same compound, the “I: Avena fatua, herbicidal effect grade” value (Avena fatua) was 3 (Herbicidal ratio of 40% or higher and lower than 70%), the “K: Lolium multiflorum Lam., herbicidal effect grade” value (Lolium multiflorum Lam.) was 5 (Herbicidal ratio of 90% or more (almost completely withered)) and the “L: Apera spica-venti, herbicidal effect grade” value (Apera spica-venti) was 5 (Herbicidal ratio of 90% or more (almost completely withered)). The “d: soybean, effect on crop grade” value (soybean) was 0 (Herbicidal ratio of 5% or lower (almost no effect)), the “b: directly sowed rice plant, effect on crop grade” value (rice) was 1 (Herbicidal ratio of 5% or higher and lower than 20%) and the “e: wheat, effect on crop grade” value (wheat [3]) was 0 (Herbicidal ratio of 5% or lower (almost no effect)). For the same compound, the “g: rapeseed, effect on crop grade” value (rapeseed [4]) was 0 (Herbicidal ratio of 5% or lower (almost no effect)), the “M: Abutilon theophrasti” value (Abutilon theophrasti) was 4 (Herbicidal ratio of 70% or higher and lower than 90%) and the “b: directly sowed rice plant, effect on crop (criteria of Test Example 1)” value (rice plant) was 5 (Herbicidal ratio of 90% or more (almost completely withered)). For the same compound, the “e: wheat, effect on crop (criteria of Test Example 1)” value (wheat [5]) was 5 (Herbicidal ratio of 90% or more (almost completely withered)), the “f: beet, effect on crop” value (beet) was 0 (Herbicidal ratio of 5% or lower (almost no effect)) and the “g: rapeseed, effect on crop (criteria of Test Example 1)” value (rapeseed [6]) was 4 (Herbicidal ratio of 70% or higher and lower than 90%).
With `CC(=O)CC1CC(O)=C(c2c(C)cc(Oc3ccc(C(F)(F)F)cn3)cc2C)C1=O` (centres unmarked) [7-019] the “effect on crop b” value [2] was 3 (Herbicidal ratio of 40% or higher and lower than 70%), the “Herbicidal effect grade, I: Avena fatua” value (Avena fatua) was 0 (Herbicidal ratio of 5% or lower (almost no effect)) and the “Herbicidal effect grade, K: Lolium multiflorum Lam.” value (Lolium multiflorum Lam.) was 0 (Herbicidal ratio of 5% or lower (almost no effect)). The “Herbicidal effect grade, L: Apera spica-venti” value (Apera spica-venti) was 0 (Herbicidal ratio of 5% or lower (almost no effect)), the “Herbicidal effect grade, N: Amaranthus retroflexus” value (Amaranthus retroflexus) was 0 (Herbicidal ratio of 5% or lower (almost no effect)) and the “Effect on crop grade, d: soybean” value (soybean) was 0 (Herbicidal ratio of 5% or lower (almost no effect)). The “Effect on crop grade, b: directly sowed rice plant” value (rice) was 0 (Herbicidal ratio of 5% or lower (almost no effect)), the “Effect on crop grade, e: wheat” value (wheat [3]) was 0 (Herbicidal ratio of 5% or lower (almost no effect)) and the “Effect on crop grade, g: rapeseed” value (rapeseed [4]) was 0 (Herbicidal ratio of 5% or lower (almost no effect)). The “M: Abutilon theophrasti” value (Abutilon theophrasti) was 0 (Herbicidal ratio of 5% or lower (almost no effect)), the “b: directly sowed rice plant, effect on crop (criteria of Test Example 1)” value (rice plant) was 1 (Herbicidal ratio of 5% or higher and lower than 20%) and the “e: wheat, effect on crop (criteria of Test Example 1)” value (wheat [5]) was 0 (Herbicidal ratio of 5% or lower (almost no effect)). The “f: beet, effect on crop” value (beet) was 0 (Herbicidal ratio of 5% or lower (almost no effect)) and the “g: rapeseed, effect on crop (criteria of Test Example 1)” value (rapeseed [6]) was 2 (Herbicidal ratio of 20% or higher and lower than 40%).
